Measurements from patent publication US20150197492A1, “NOVEL INDENO[1,2-c]QUINOLIN-11-ONE DERIVATIVES, PREPARATION METHOD AND APPLICATION THEREOF” (National Defense Medical Center, priority 2014, published 2015).

Tests used:
Type in all cases: cell-based
human PC-3 cells = experiment: Sulforhodamine B (SRB) assay, cytotoxicity against PC-3 cells; conditions: SRB assay, PC-3 cells
Procedure, shortened: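 PC-3 cells in 5% FBS were fixed with 10% TCA after 24 h as T0, then treated with compound for 48 h, fixed, stained with 0.4% SRB in 1% acetic acid and solubilized in 10 mmol/L Trizma base. Absorbance was read at 515 nm. GI% = 100−[(Tx−T0)/(C−T0)]×100, and IC50 is the concentration halving total protein.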

[1] = tested on: 55 to 60 cancer cell lines; conditions: 10 μM
CCRF-CEM = experiment: cells
HL-60 (TB) = experiment: cells; conditions: HL-60 (TB) (Leukemia), 10 μM, 48 hours
SR = experiment: cells
A549/ATCC = experiment: cells
HOP-62 = experiment: cells
NCI-H23 = experiment: cells
NCI-H460 = experiment: cells
NCI-H522 = experiment: cells
SW-620 = experiment: cells
SF-295 = experiment: cells; conditions: CNS Cancer SF-295
SNB-19 = experiment: cells
U251 = experiment: cells; conditions: CNS Cancer U251
MDA-MB-435 = experiment: cells
SK-MEL-28 = experiment: cells
SK-MEL-5 = experiment: cells
UACC-257 = experiment: cells
IGROV1 = experiment: cells
OVCAR-4 = experiment: cells
SK-OV-3 = experiment: cells
786-0 = experiment: cells
ACHN = experiment: cells
CAKI-1 = experiment: cells
TK-10 = experiment: cells
DU-145 = experiment: cells
MCF7 = experiment: cells
MDA-MB-231/ATCC = experiment: cells
BT-549 = experiment: cells
[2] = Homo sapiens, Non-Small Cell Lung Cancer A549/ATCC
[3] = Homo sapiens, Non-Small Cell Lung Cancer HOP-62
[4] = Homo sapiens, Non-Small Cell Lung Cancer NCI-H23
[5] = Homo sapiens, Colon Cancer SW-620
[6] = Homo sapiens, Breast Cancer MDA-MB-231/ATCC

Compound: CCN(CC)CCNc1nc2ccccc2c2c1-c1ccc(Cl)cc1C2=O [SJ-3, 6-(2-(Diethylamino)ethylamino)-9-chloro-11H-indeno[1,2-c]quinolin-11-one]
- Toxicity (%) (human PC-3 cells): 55.6%
- GI % (10 μM) (human PC-3 cells; 10 μM): 100%
- Mean (mean growth percentage of the tested cancer cell lines) ([1]; 48 hours, all tested cell lines): 62.4%
- cytotoxicity in the first stage (in words) ([1]; basis for selection for the five-dose test): potential cytotoxicity
- growth percentage (CCRF-CEM; CCRF-CEM (Leukemia), 10 μM, 48 hours): 42.00%
- GI50 (CCRF-CEM; Homo sapiens, Leukemia CCRF-CEM): 8.24 µM
- CC50 (CCRF-CEM; Homo sapiens, Leukemia CCRF-CEM, read-out: LC50 (the source's name)): 7.8 µM
- TGI (CCRF-CEM; Leukemia CCRF-CEM): 3.50 µM
- growth percentage (HL-60 (TB)): 94.33%
- GI50 (SR; Homo sapiens, Leukemia SR): 5.05 µM
- LC50 (50% lethal concentration) (SR; Homo sapiens, Leukemia SR): 11.6 µM
- TGI (SR; Leukemia SR): 4.06 µM
- growth percentage (SR; SR (Leukemia), 10 μM, 48 hours): 46.92%
- growth percentage (A549/ATCC; A549/ATCC (Non-Small Cell Lung Cancer), 10 μM, 48 hours): 51.79%
- GI50 (A549/ATCC; [2]): 15.2 µM
- LC50 (50% lethal concentration) (A549/ATCC; [2]): 6.72 µM
- TGI (A549/ATCC; Non-Small Cell Lung Cancer A549/ATCC): 3.51 µM
- growth percentage (HOP-62; HOP-62 (Non-Small Cell Lung Cancer), 10 μM, 48 hours): 24.86%
- GI50 (HOP-62; [3]): 4.51 µM
- LC50 (50% lethal concentration) (HOP-62; [3]): 5.74 µM
- TGI (HOP-62; Non-Small Cell Lung Cancer HOP-62): 2.83 µM
- GI50 (NCI-H23; [4]): 2.63 µM
- LC50 (NCI-H23; [4]): 8.35 µM
- growth percentage (NCI-H23; NCI-H23 (Non-Small Cell Lung Cancer), 10 μM, 48 hours): 80.63%
- TGI (NCI-H23; Non-Small Cell Lung Cancer NCI-H23): 4.00 µM
- GI50 (NCI-H460; Homo sapiens, Non-Small Cell Lung Cancer NCI-460): 5.15 µM
- CC50 (NCI-H460; Homo sapiens, Non-Small Cell Lung Cancer NCI-460, read-out: LC50 (the source's name)): 6.74 µM
- growth percentage (NCI-H460; NCI-H460 (Non-Small Cell Lung Cancer), 10 μM, 48 hours): 25.15%
- TGI (NCI-H460; Non-Small Cell Lung Cancer NCI-460): 3.20 µM
- GI50 (NCI-H522; Homo sapiens, Non-Small Cell Lung Cancer NCI-H522): 27.6 µM
- CC50 (NCI-H522; Homo sapiens, Non-Small Cell Lung Cancer NCI-H522, read-out: LC50 (the source's name)): 7.23 µM
- growth percentage (NCI-H522; NCI-H522 (Non-Small Cell Lung Cancer), 10 μM, 48 hours): 77.39%
- TGI (NCI-H522; Non-Small Cell Lung Cancer NCI-H522): 3.80 µM
- TGI (SW-620; Colon Cancer SW-620): 3.06 µM
- GI50 (SW-620; [5]): 5.12 µM
- LC50 (concentration killing 50% of cells) (SW-620; [5]): 6.67 µM
- growth percentage (SW-620; SW-620 (Colon Cancer), 10 μM, 48 hours): 43.72%
- TGI (SF-295): 4.60 µM
- GI50 (SF-295; Homo sapiens): 17.8 µM
- LC50 (concentration killing 50% of cells) (SF-295; Homo sapiens): 9.85 µM
- TGI (SNB-19; CNS Cancer SNB-19): 3.42 µM
- GI50 (SNB-19; Homo sapiens, CNS Cancer SNB-19): 18.2 µM
- growth percentage (SNB-19; SNB-19 (CNS Cancer), 10 μM, 48 hours): 94.02%
- TGI (U251): 3.06 µM
- GI50 (U251; Homo sapiens, U-251): 11.4 µM
- LC50 (concentration killing 50% of cells) (U251; Homo sapiens, U-251): 5.88 µM
- GI50 (MDA-MB-435; Homo sapiens, Melanoma MDA-MB-435): 20.2 µM
- CC50 (MDA-MB-435; Homo sapiens, Melanoma MDA-MB-435, read-out: LC50 (the source's name)): 7.62 µM
- growth percentage (MDA-MB-435; MDA-MB-435 (Melanoma), 10 μM, 48 hours): 92.72%
- TGI (MDA-MB-435; Melanoma MDA-MB-435): 3.86 µM
- GI50 (SK-MEL-28; Homo sapiens, Melanoma SK-MEL-28): 6 µM
- CC50 (SK-MEL-28; Homo sapiens, Melanoma SK-MEL-28, read-out: LC50 (the source's name)): 5.83 µM
- TGI (SK-MEL-28; Melanoma SK-MEL-28): 3.21 µM
- growth percentage (SK-MEL-28; SK-MEL-28 (Melanoma), 10 μM, 48 hours): 87.40%
- GI50 (SK-MEL-5; Homo sapiens, Melanoma SK-MEL-5): 1.15 µM
- TGI (SK-MEL-5; Melanoma SK-MEL-5): 2.61 µM
- growth percentage (SK-MEL-5; SK-MEL-5 (Melanoma), 10 μM, 48 hours): 82.51%
- GI50 (UACC-257; Homo sapiens, Melanoma UACC-257): 21.2 µM
- CC50 (UACC-257; Homo sapiens, Melanoma UACC-257, read-out: LC50 (the source's name)): 6.37 µM
- TGI (UACC-257; Melanoma UACC-257): 3.39 µM
- growth percentage (UACC-257; UACC-257 (Melanoma), 10 μM, 48 hours): 92.18%
- GI50 (IGROV1; Homo sapiens, IGROV-1, Ovarian Cancer IGROV1): 11.2 µM
- CC50 (IGROV1; Homo sapiens, IGROV-1, Ovarian Cancer IGROV1, read-out: LC50 (the source's name)): 7.82 µM
- growth percentage (IGROV1; IGROV1 (Ovarian Cancer), 10 μM, 48 hours): 43.43%
- TGI (IGROV1; Ovarian Cancer IGROV1): 3.62 µM
- GI50 (OVCAR-4; Homo sapiens, Ovarian Cancer OVCAR-4): 2.99 µM
- CC50 (OVCAR-4; Homo sapiens, Ovarian Cancer OVCAR-4, read-out: LC50 (the source's name)): 5.68 µM
- growth percentage (OVCAR-4; OVCAR-4 (Ovarian Cancer), 10 μM, 48 hours): 52.50%
- TGI (OVCAR-4; Ovarian Cancer OVCAR-4): 2.79 µM
- GI50 (SK-OV-3; Homo sapiens, Ovarian Cancer SK-OV-3): 35.9 µM
- CC50 (SK-OV-3; Homo sapiens, Ovarian Cancer SK-OV-3, read-out: LC50 (the source's name)): 17.2 µM
- TGI (SK-OV-3; Ovarian Cancer SK-OV-3): 5.57 µM
- growth percentage (SK-OV-3; SK-OV-3 (Ovarian Cancer), 10 μM, 48 hours): 84.20%
- growth percentage (786-0; 786-0 (Renal Cancer), 10 μM, 48 hours): 74.13%
- GI50 (786-0; Homo sapiens, 786-0, Renal Cancer 786-O): 26.8 µM
- CC50 (786-0; Homo sapiens, 786-0, Renal Cancer 786-O, read-out: LC50 (the source's name)): 6.01 µM
- TGI (786-0; Renal Cancer 786-O): 3.29 µM
- growth percentage (ACHN; ACHN (Renal Cancer), 10 μM, 48 hours): 55.86%
- GI50 (ACHN; Homo sapiens, Renal Cancer ACHN): 6.44 µM
- CC50 (ACHN; Homo sapiens, Renal Cancer ACHN, read-out: LC50 (the source's name)): 5.89 µM
- TGI (ACHN; Renal Cancer ACHN): 3.04 µM
- growth percentage (CAKI-1; CAKI-1 (Renal Cancer), 10 μM, 48 hours): 64.35%
- GI50 (CAKI-1; Homo sapiens, Renal Cancer CAKI-1): 14.8 µM
- CC50 (CAKI-1; Homo sapiens, Renal Cancer CAKI-1, read-out: LC50 (the source's name)): 6.8 µM
- TGI (CAKI-1; Renal Cancer CAKI-1): 3.26 µM
- GI50 (TK-10; Homo sapiens, Renal Cancer TK-10): 24.6 µM
- CC50 (TK-10; Homo sapiens, Renal Cancer TK-10, read-out: LC50 (the source's name)): 6.38 µM
- TGI (TK-10; Renal Cancer TK-10): 3.70 µM
- growth percentage (TK-10; TK-10 (Renal Cancer), 10 μM, 48 hours): 95.55%
- growth percentage (DU-145; DU-145 (Prostate Cancer), 10 μM, 48 hours): 65.48%
- GI50 (DU-145; Homo sapiens, Prostate Cancer DU-145): 18.8 µM
- CC50 (DU-145; Homo sapiens, Prostate Cancer DU-145, read-out: LC50 (the source's name)): 5.43 µM
- TGI (DU-145; Prostate Cancer DU-145): 2.94 µM
- TGI (MCF7; Breast Cancer MCF7): 2.60 µM
- GI50 (MCF7; Homo sapiens, Breast Cancer MCF7): 0.44 µM
- CC50 (MCF7; Homo sapiens, Breast Cancer MCF7, read-out: LC50 (the source's name)): 5.54 µM
- growth percentage (MCF7; MCF7 (Breast Cancer), 10 μM, 48 hours): 12.70%
- TGI (MDA-MB-231/ATCC; Breast Cancer MDA-MB-231/ATCC): 2.71 µM
- GI50 (MDA-MB-231/ATCC; [6]): 2.23 µM
- LC50 (concentration giving 50% net cell kill) (MDA-MB-231/ATCC; [6]): 5.7 µM
- growth percentage (MDA-MB-231/ATCC; MDA-MB-231/ATCC (Breast Cancer), 10 μM, 48 hours): 25.16%
- growth percentage (BT-549; BT-549 (Breast Cancer), 10 μM, 48 hours): 87.48%
- TGI (BT-549; Breast Cancer BT-549): 9.50 µM
- GI50 (BT-549; Homo sapiens, Breast Cancer BT-549): 32.5 µM
- CC50 (BT-549; Homo sapiens, Breast Cancer BT-549, read-out: LC50 (the source's name)): 45.5 µM
